Reference: ChEMBL document CHEMBL5131478, “3,5-Bis(trifluoromethyl)phenylsulfonamides, a novel pancreatic cancer active lead. Investigation of the terminal aromatic moiety” (Bioorg Med Chem Lett, 2022)

system: DU-145; assay: Growth inhibition of human DU-145 cells incubated for 72 hrs by MTT assay; type: functional; details: not given

GI50 [µM]	Structure (SMILES)
30	COc1ccc(CNCCNS(=O)(=O)c2cc(C(F)(F)F)cc(C(F)(F)F)c2)cc1OC
4	COc1ccc(CNCCCNS(=O)(=O)c2cc(C(F)(F)F)cc(C(F)(F)F)c2)cc1OC
2.5	O=S(=O)(NCCNCc1ccc(-c2ccccc2)cc1)c1cc(C(F)(F)F)cc(C(F)(F)F)c1

system: NCI-H460; assay: Growth inhibition of human NCI-H460 cells incubated for 72 hrs by MTT assay; type: functional; details: not given

GI50 [µM]	Structure (SMILES)
19	COc1ccc(CNCCNS(=O)(=O)c2cc(C(F)(F)F)cc(C(F)(F)F)c2)cc1OC
2.4	COc1ccc(CNCCCNS(=O)(=O)c2cc(C(F)(F)F)cc(C(F)(F)F)c2)cc1OC
2.6	O=S(=O)(NCCNCc1ccc(-c2ccccc2)cc1)c1cc(C(F)(F)F)cc(C(F)(F)F)c1

system: MCF7; assay: Growth inhibition of human MCF7 cells incubated for 72 hrs by MTT assay; type: functional; details: not given

GI50 [µM]	Structure (SMILES)
25	COc1ccc(CNCCNS(=O)(=O)c2cc(C(F)(F)F)cc(C(F)(F)F)c2)cc1OC
1.9	COc1ccc(CNCCCNS(=O)(=O)c2cc(C(F)(F)F)cc(C(F)(F)F)c2)cc1OC
1.4	O=S(=O)(NCCNCc1ccc(-c2ccccc2)cc1)c1cc(C(F)(F)F)cc(C(F)(F)F)c1

system: MCF-10A; assay: Cytotoxicity against human MCF-10A cells assessed as inhibition of cell growth at 25 uM incubated for 72 hrs by MTT assay; type: toxicity, cell-based; details: not given

Structure (SMILES)	Activity
O=S(=O)(NCCNCc1ccc(Br)cc1)c1cc(C(F)(F)F)cc(C(F)(F)F)c1	Non-Toxic
O=S(=O)(NCCNCc1ccc(C(F)(F)F)cc1)c1cc(C(F)(F)F)cc(C(F)(F)F)c1	Non-Toxic

system: HT-29; assay: Growth inhibition of human HT-29 cells incubated for 72 hrs by MTT assay; type: functional; details: not given

GI50 [µM]	Structure (SMILES)
13	COc1ccc(CNCCNS(=O)(=O)c2cc(C(F)(F)F)cc(C(F)(F)F)c2)cc1OC
2.7	COc1ccc(CNCCCNS(=O)(=O)c2cc(C(F)(F)F)cc(C(F)(F)F)c2)cc1OC
2.7	O=S(=O)(NCCNCc1ccc(-c2ccccc2)cc1)c1cc(C(F)(F)F)cc(C(F)(F)F)c1

system: A-431; assay: Growth inhibition of human A-431 cells incubated for 72 hrs by MTT assay; type: functional; details: not given

GI50 [µM]	Structure (SMILES)
25	COc1ccc(CNCCNS(=O)(=O)c2cc(C(F)(F)F)cc(C(F)(F)F)c2)cc1OC
7	COc1ccc(CNCCCNS(=O)(=O)c2cc(C(F)(F)F)cc(C(F)(F)F)c2)cc1OC
2.4	O=S(=O)(NCCNCc1ccc(-c2ccccc2)cc1)c1cc(C(F)(F)F)cc(C(F)(F)F)c1

system: U-87 MG; assay: Growth inhibition of human U87 cells incubated for 72 hrs by MTT assay; type: functional, U-87MG ATCC; details: not given

GI50 [µM]	Structure (SMILES)
25	COc1ccc(CNCCNS(=O)(=O)c2cc(C(F)(F)F)cc(C(F)(F)F)c2)cc1OC
3.4	COc1ccc(CNCCCNS(=O)(=O)c2cc(C(F)(F)F)cc(C(F)(F)F)c2)cc1OC
1.4	O=S(=O)(NCCNCc1ccc(-c2ccccc2)cc1)c1cc(C(F)(F)F)cc(C(F)(F)F)c1

system: MIA PaCa-2; assay: Growth inhibition of human MIA PaCa-2 cells incubated for 72 hrs by MTT assay; type: functional; details: not given

GI50 [µM]	Structure (SMILES)
29	COc1ccc(CNCCNS(=O)(=O)c2cc(C(F)(F)F)cc(C(F)(F)F)c2)cc1OC
2.8	COc1ccc(CNCCCNS(=O)(=O)c2cc(C(F)(F)F)cc(C(F)(F)F)c2)cc1OC
2.7	O=S(=O)(NCCNCc1ccc(-c2ccccc2)cc1)c1cc(C(F)(F)F)cc(C(F)(F)F)c1

system: BE(2)-C; assay: Growth inhibition of human BE2C cells incubated for 72 hrs by MTT assay; type: functional; details: not given

Structure (SMILES)	GI50 [µM]
COc1ccc(CNCCNS(=O)(=O)c2cc(C(F)(F)F)cc(C(F)(F)F)c2)cc1OC	23
COc1ccc(CNCCCNS(=O)(=O)c2cc(C(F)(F)F)cc(C(F)(F)F)c2)cc1OC	3.6
O=S(=O)(NCCNCc1ccc(-c2ccccc2)cc1)c1cc(C(F)(F)F)cc(C(F)(F)F)c1	2.7

system: HPAC; assay: Growth inhibition of human HPAC cells incubated for 72 hrs by MTT assay; type: functional; details: not given

Structure (SMILES)	GI50 [µM]
COc1ccc(CNCCNS(=O)(=O)c2cc(C(F)(F)F)cc(C(F)(F)F)c2)cc1OC	16
COc1ccc(CNCCCNS(=O)(=O)c2cc(C(F)(F)F)cc(C(F)(F)F)c2)cc1OC	3.5
O=S(=O)(NCCNCc1ccc(-c2ccccc2)cc1)c1cc(C(F)(F)F)cc(C(F)(F)F)c1	2.8

system: BXPC-3; assay: Growth inhibition of human BXPC-3 cells incubated for 72 hrs by MTT assay; type: functional; details: not given

GI50 [µM]	Structure (SMILES)
20	COc1ccc(CNCCNS(=O)(=O)c2cc(C(F)(F)F)cc(C(F)(F)F)c2)cc1OC
13	COc1ccc(CNCCCNS(=O)(=O)c2cc(C(F)(F)F)cc(C(F)(F)F)c2)cc1OC
1.6	O=S(=O)(NCCNCc1ccc(-c2ccccc2)cc1)c1cc(C(F)(F)F)cc(C(F)(F)F)c1

system: not listed separately; assay: Growth inhibition of human MCF-10A cells incubated for 72 hrs by MTT assay; type: toxicity, cell-based; details: not given

Structure (SMILES)	GI50 at 72 h [µM]
COc1ccc(CNCCNS(=O)(=O)c2cc(C(F)(F)F)cc(C(F)(F)F)c2)cc1OC	25
COc1ccc(CNCCCNS(=O)(=O)c2cc(C(F)(F)F)cc(C(F)(F)F)c2)cc1OC	5.3
O=S(=O)(NCCNCc1ccc(-c2ccccc2)cc1)c1cc(C(F)(F)F)cc(C(F)(F)F)c1	3.3

system: A2780; assay: Growth inhibition of human A2780 cells incubated for 72 hrs by MTT assay; type: functional; details: not given

GI50 [µM]	Structure (SMILES)
14	COc1ccc(CNCCNS(=O)(=O)c2cc(C(F)(F)F)cc(C(F)(F)F)c2)cc1OC
3.8	COc1ccc(CNCCCNS(=O)(=O)c2cc(C(F)(F)F)cc(C(F)(F)F)c2)cc1OC
2.6	O=S(=O)(NCCNCc1ccc(-c2ccccc2)cc1)c1cc(C(F)(F)F)cc(C(F)(F)F)c1

system: ASPC1; assay: Growth inhibition of human ASPC1 cells incubated for 72 hrs by MTT assay; type: functional; details: not given

GI50 [µM]	Structure (SMILES)
20	COc1ccc(CNCCNS(=O)(=O)c2cc(C(F)(F)F)cc(C(F)(F)F)c2)cc1OC
6.4	COc1ccc(CNCCCNS(=O)(=O)c2cc(C(F)(F)F)cc(C(F)(F)F)c2)cc1OC
2.8	O=S(=O)(NCCNCc1ccc(-c2ccccc2)cc1)c1cc(C(F)(F)F)cc(C(F)(F)F)c1

system: PANC-1; assay: Growth inhibition of human PANC-1 cells incubated for 72 hrs by MTT assay; type: functional; details: not given

GI50 [µM]	Structure (SMILES)
34	COc1ccc(CNCCNS(=O)(=O)c2cc(C(F)(F)F)cc(C(F)(F)F)c2)cc1OC
18	COc1ccc(CNCCCNS(=O)(=O)c2cc(C(F)(F)F)cc(C(F)(F)F)c2)cc1OC
4.2	O=S(=O)(NCCNCc1ccc(-c2ccccc2)cc1)c1cc(C(F)(F)F)cc(C(F)(F)F)c1

system: Capan-2; assay: Growth inhibition of human Capan-2 cells incubated for 72 hrs by MTT assay; type: functional; details: not given

Structure (SMILES)	GI50 [µM]
COc1ccc(CNCCNS(=O)(=O)c2cc(C(F)(F)F)cc(C(F)(F)F)c2)cc1OC	34
COc1ccc(CNCCCNS(=O)(=O)c2cc(C(F)(F)F)cc(C(F)(F)F)c2)cc1OC	15
O=S(=O)(NCCNCc1ccc(-c2ccccc2)cc1)c1cc(C(F)(F)F)cc(C(F)(F)F)c1	2.4

system: not listed separately; assay: Growth inhibition of human SJG2 cells incubated for 72 hrs by MTT assay; type: functional; details: SJ-G2

Structure (SMILES)	GI50 [µM]
COc1ccc(CNCCNS(=O)(=O)c2cc(C(F)(F)F)cc(C(F)(F)F)c2)cc1OC	29
COc1ccc(CNCCCNS(=O)(=O)c2cc(C(F)(F)F)cc(C(F)(F)F)c2)cc1OC	18
O=S(=O)(NCCNCc1ccc(-c2ccccc2)cc1)c1cc(C(F)(F)F)cc(C(F)(F)F)c1	2.5
